# Laboratory results taken from article PMC6085350, “Small molecule inhibitors of RAS-effector protein interactions derived using an intracellular antibody fragment” (Nature Communications, 2018).
# How the values were obtained:
# [1] = tested on: HT1080 cells (NRAS^Q61K); test: Cell viability (CellTiterGlo), HT1080; assay type: cell-based, human; conditions: HT1080, 0–20 μM, up to 72 h
# Procedure: (§1) Fig. 5 Abd-7 results on RAS-dependent signalling pathways and cell viability. a, b DLD-1 (a) or H358 (b) cells were serum-starved for 24 h, incubated in mono-layer with Abd-7 in a range from 2, 5, 10 and 20 μM for 3 h and stimulated with EGF 10 min. Proteins were extracted and separated by SDS-PAGE and transferred to membranes for Western analysis with anti-pAKT, anti-pERK, anti-pan AKT and anti-pan ERK. Anti-cyclophilin B antibody was the loading control. Signal was developed using standard ECL. c–e Effects of compounds Abd-2, Abd-4, Abd-5, Abd-6, and Abd-7 on the viability of human cancer cells lines was assessed for a 2-D culture of DLD-1 (mutant KRAS^G13D) cells and HT1080 cells (mutant NRAS^Q61K). The cells were treated with a dose range from 0 μM to 20 μ and incubated for 72 h when cell viability was assessed using CellTitreGlo. […] Each experiment was repeated at least three times (a, b) and four times (c, d). Where error bars are presented, they correspond to mean values ± SD of biological repeats […]
# (§2) Cancer cell lines were in seeded in ViewPlates-96 microplates (PerkinElmer). DLD-1 cells were plated at 10,000 cells per well and HT1080 cells at 7500 cells per well and cultured in DMEM, high glucose, GlutaMAX media containing 10% FBS at 37 °C in 5% CO2 atmosphere. Cells were cultured overnight and the compounds (dissolved in DMSO and diluted to 0.2% DMSO) were added to the cells at concentrations ranging from 0 to 20 μM. The cells were incubated under standard culture conditions for either 24, 48 or 72 h. Cell viability was as quantitated using the CellTiterGlo Luminescent Cell Viability Assay (Promega) according to the manufacturer’s instructions to measure ATP generated by metabolically active cells. Luminescent signals were measured using an Envision 2103 Multilabel Microplate Reader (PerkinElmer). The luminescence signals obtained from the compound-treated cells were normalized against the signal for DMSO-only treated cells. The IC50 values, calculated from the 48 and 72 h CellTiterGlo data, were generated by non-linear regression using the software GraphPad Prism 7.00 for windows (GraphPad Inc).
# (§3) Supplementary Figure 7: The effect of Abd compounds on the viability of cancer cells The effect of the chemical series on the viability of human cancer cells lines DLD -1 (a colorectal cancer cell line with mutant KRAS
# (§4) ) and HT1080 (a fibrosarcoma cell line with
# (§5) ). The cells were treated with a dose range from […] of either
# (§6) Abd-2, Abd-4, Abd-5, Abd-6 and Abd-7 and incubated for 24 or 48 hours. Cell viability was assessed using CellTitreGlo . In each case, the data are normalized to cells treated with DMSO only. Panels a and b are DLD-1 viability and panels c and d are HT1080 viability.
# (§7) The IC50 for Abd-7 at 48 & 72 […]
# (§8) hours are shown in panel f. Each experiment was repeated at least four times ( a to d).
# (§9) Where error bars are presented, they correspond to mean values ± SD of biological repeats.
# (§10) (1 picture or pasted object on this page, not shown here)
# [2] = tested on: DLD-1 cells (KRAS^G13D); test: Cell viability (CellTiterGlo), DLD-1; assay type: cell-based, human; conditions: DLD-1, 0–20 μM, up to 72 h
# Procedure: as §1, §2, §3, §4, §5, §6, §7, §8, §9, §10
# [3] = tested on: RAS-effector PPI; test: RAS biosensor BRET assay (partners not specified); assay type: cell-based, human
# Procedure: The BRET assay was carried out as described elsewhere. A total of 650,000 HEK293T were seeded in each well of a six well plate. Approximately, 24 h later, cells were transfected with an appropriated BRET-based RAS biosensor (i.e. RAS-effector) using Lipofectamine 2000 transfection reagent (Thermo-Fisher). Cells were detached 24 h later and washed with PBS and seeded in a white 96 well plate (clear bottom, PerkinElmer, cat#6005181) in OptiMEM no phenol red medium (Life Technologies) complemented with 4% FBS. Cells were left for 4 h at 37 °C before adding compounds. […] The final concentrations in the cells were 0, 5, 10 and 20 μM (therefore the intermediate 10X concentrations were 0, 50, 100 and 200 μM. Furthermore, 10 μl of 10X compounds were added in each well of the 96 well plate to 0, 5, 10 and 20 μM final concentrations (with final 0.2% DMSO each). Quadruplicates were performed for each point. Cells were left for an additional 20 h at 37 °C before the BRET2 signal reading directly after addition of Coelenterazine 400a substrate (10 μM final) to cells (Cayman Chemicals, cat#16157). BRET2 reading was carried out on an Envision instrument (2103 Multilabel Reader, PerkinElmer) with the BRET2 Dual Emission optical module (515 nm ± 30 and 410 nm ± 80; PerkinElmer).
# [4] = biological target: T1, KRAS^G12V-GppNHp (Homo sapiens, UniProt P01116, G12V); test: SPR binding to KRAS G12V-GppNHp; conditions: 100 μM, run in triplicate
# T1 construct: made in house; host or cells: E. coli (pGEX-2T; strain named only for the HRAS plasmids)
# Procedure: A BIAcore T100 (GE Healthcare) was used to screen the fragment library for RAS binders. A polyclonal goat anti-GST antibody (GE Healthcare) was immobilized on a CM5 sensor chip (GE Healthcare) by the amine coupling method. To immobilize the antibody on CM5 chip, the chip was first activated by injecting 100 µl mixture of 0.2 M EDC (N-ethyl-N-(dimethylaminopropyl) carbodiimide hydrochloride) and 0.05 M NHS (N-hydroxysuccinimide) at 10 µl/min flow rate. Furthermore, 100 µg/ml anti-GST antibody in 10 mM sodium acetate, pH 5.0 was injected at 5 µl/min for 900 s and immobilized until 20,000 ~ 25,000 RU. After immobilization the chip was immediately inactivated by injecting 1 M ethanolamine, pH 8.5 at 10 µl/min for 600 s. The chip was kept running in the HBS buffer (GE Healthcare) comprising 10 mM HEPES, pH 8.0, 150 mM NaCl. Of all, 5 µg/ml recombinant GST, GST-HRAS^G12V-GTPγS or GST-HRAS^G12V-GDP proteins were injected into flow cell Fc4, Fc2 and Fc3, respectively for trapping through the immobilized anti-GST antibody. The GST-HRAS^G12V-GTPγS, GST-KRAS^G12V-GppNHpp, or GST-HRAS^G12V-GDP proteins were injected at 5 µl/min for 900 s and usually reached approximately 2000–2500 RU. The GST was injected at same flow rate until about 1200–1350 RU which is 0.54 times less than the GST-HRAS^G12V-GTPγS or GST-HRAS-GDP capture amounts, taking into consideration relative molecular weights (GST, 26KDa, GST-RAS, 48KDa, respectively). Before fragment library screening, the running buffer was replaced by 20 mM Tris, pH 8, 150 mM NaCl, 5 mM MgCl2, 5% DMSO. DMSO solvent correction curves were generated by injecting the running buffers with serial concentrations of DMSO ranging from 4.5 to 6%. […] The individual compounds were injected at 30 µl for 60 s at 30 µl/min flow rate over flow cells Fc1, Fc2, Fc3 and Fc4. The captured GST and GST-RAS were removed from the chip by rinsing with 40 µl 10 mM glycine-HCl, pH 2.1 at 20 µl/min flow rate after every 48 compounds sequential injection. The chip was regenerated by injecting new GST and GST-RAS proteins as described above.
# [5] = biological target: T2, GST-HRAS^G12V-GDP (Homo sapiens, UniProt P01112, G12V); test: SPR binding to GDP-bound HRAS; conditions: 3 to 2000 μM range
# T2 construct: expression of HRAS (1-166) HRAS^G12V or KRAS^G12V cDNA cloned into the pGEX-2T vector; made in house; host or cells: E. coli C41(DE3)
# Procedure: (§11) A BIAcore T100 (GE Healthcare) was used to screen the fragment library for RAS binders. A polyclonal goat anti-GST antibody (GE Healthcare) was immobilized on a CM5 sensor chip (GE Healthcare) by the amine coupling method. To immobilize the antibody on CM5 chip, the chip was first activated by injecting 100 µl mixture of 0.2 M EDC (N-ethyl-N-(dimethylaminopropyl) carbodiimide hydrochloride) and 0.05 M NHS (N-hydroxysuccinimide) at 10 µl/min flow rate. Furthermore, 100 µg/ml anti-GST antibody in 10 mM sodium acetate, pH 5.0 was injected at 5 µl/min for 900 s and immobilized until 20,000 ~ 25,000 RU. After immobilization the chip was immediately inactivated by injecting 1 M ethanolamine, pH 8.5 at 10 µl/min for 600 s. The chip was kept running in the HBS buffer (GE Healthcare) comprising 10 mM HEPES, pH 8.0, 150 mM NaCl. Of all, 5 µg/ml recombinant GST, GST-HRAS^G12V-GTPγS or GST-HRAS^G12V-GDP proteins were injected into flow cell Fc4, Fc2 and Fc3, respectively for trapping through the immobilized anti-GST antibody. The GST-HRAS^G12V-GTPγS, GST-KRAS^G12V-GppNHpp, or GST-HRAS^G12V-GDP proteins were injected at 5 µl/min for 900 s and usually reached approximately 2000–2500 RU. […]
# [6] = biological target: T3, GST-HRAS^G12V-GTPγS-anti-RAS single chain Fv (scFv) (Homo sapiens, UniProt P01112, G12V); test: Competitive SPR (cSPR) with anti-RAS scFv bound to HRAS; assay type: binding; conditions: 3 to 2000 μM range
# T3 construct: expression of HRAS (1-166) HRAS^G12V or KRAS^G12V cDNA cloned into the pGEX-2T vector; made in house; host or cells: E. coli C41(DE3)
# Procedure: For competitive SPR (cSPR) assays between anti-RAS scFv and candidate fragment binder, after immobilizing anti-GST polyclonal antibody was immobilized on CM5 sensor chip as described above, then 5 µg/ml GST-HRAS-GTPγS protein was injected at 5 µl/min for 900 s to flow cells Fc2 and 4 and 5 µg/ml GST-HRAS-GDP to Fc3. Following GST-HRAS capture on the flow cells, 5 µg/ml anti-RAS scFv Y6-204 was injected at 5 µl/min for 900 s only to Fc4 until reaching an additional 1500–1800 RU, which is theoretically when all GST-HRAS-GTPγS should be bound to anti-RAS scFv with 1:1 interaction stoichiometry. After completing anti-RAS scFv injection, the sensograms were confirmed to be stable (i.e. anti-RAS scFv was not dissociated from GST-HRAS-GTPγS on Fc4). […]
# [7] = biological target: T4, GST-HRAS^G12V-GTPγS (Homo sapiens, UniProt P01112, G12V); test: SPR binding to immobilized GST-HRAS G12V-GTPγS
# T4 construct: expression of HRAS (1-166) HRAS^G12V or KRAS^G12V cDNA cloned into the pGEX-2T vector; made in house; host or cells: E. coli C41(DE3)
# Procedure: as §11
# The corresponding kinetic […], were determined using steady-state analysis of the compounds’ binding affinities, assuming 1:1 ligand-protein stoichiometry. […]
# [8] = Solubility; assay type: physicochemical
smiles,measurement,setting,value
CN(C)CCOc1ccc(C(=O)NCC2COc3ccccc3O2)cc1 (centres unmarked) [Abd-4],effect on cell viability,[1],no effect on cell viability
same,effect on cell viability,[2],no effect on cell viability
same,activity in the RAS biosensor BRET assay,[3],do not show activity
NCC1COc2cc(Cl)ccc2O1 (centres unmarked) [Abd-3],binding to KRAS^G12V-GppNHp (SPR),[4],lower affinity than Abd-2
"O=C(Nc1ccc2ccccc2n1)c1ccco1 [Abd-1, N-(2-quinolinyl)-2-furamide]",binding to GDP-bound form of HRAS (SPR),[5],no binding
same,binding to HRAS^G12V in complex with anti-RAS scFv (cSPR),[6],no binding
same,binding to GST-HRAS^G12V-GTPγS (SPR dose response),[7]; 3 to 2000 μM range,bound and bind
same,Kd,"[7]; SPR, estimated, single experimental analysis",> 370 µM
same,solubility,[8],140 µM
O=C(NC[C@H]1COc2ccccc2O1)c1ccco1 [Abd-2a],binding to KRAS^G12V-GppNHp (SPR),[4],bind
O=C(NC[C@@H]1COc2ccccc2O1)c1ccco1 [Abd-2b],binding to KRAS^G12V-GppNHp (SPR),[4],bind
